Literature values in patent US11134689B2, “Natural volatile plant oils to repel arthropods” (Shepard Farms, LLC, priority 2011, dated 2021).

Tested on: fruit fly (Ceratitis capitata)
Conditions: in vivo

Q: Which insecticidal activity does the source give for `CC12CCC(CC1)C(C)(C)O2` [1,8-cineole] here?
A: high insecticidal activity
